31 molecules from US9592224B2, “Substituted benzothiazoles and therapeutic uses thereof for the treatment of human diseases” (CONSEJO SUPERIOR DE INVESTIGACIONES CIENTÍFICAS, priority 2013, dated 2017) can be followed below.

Data set [1] addresses T1, recombinant human enzyme CK-1δ (Homo sapiens, UniProt P48730).
T1 construct: purchased Millipore Iberica SAU
The experiment in a line: Enzyme inhibition assay, Luminometer Kinase-GLO method, CK-1δ. Type of data set: biochemical. As to conditions: for IC50: casein substrate, 4 μM ATP, 60 minutes at 30° C., read-out: Inhibitory Concentration 50 (IC50) CK-1δ. The protocol:
(§1) Enzyme inhibition assays were performed using the Luminometer Kinase-GLO® method. Recombinant human enzyme CK-1δ was purchased from Millipore Iberica SAU and recombinant human enzyme CK-1ε was purchased from Invitrogen. The phosphorylation substration chosen was casein. The Luminescent Kinase Kit (catalogue no. V6711) was obtained from Promega. ATP and other reagents were purchased from Sigma-Aldrich (St. Louis, Mo.).
(§2) The assays were conducted in buffer using 96-well plates. In a typical assay: 10 μL of the test compound (dissolved in dimethylsulfoxide at a concentration of 1 mM and, in turn, dissolved in buffer to the required concentration for the experiment) and 10 μL (16 ng) of the CK-1δ enzyme or 10 μL (50 ng) of the CK-1ε enzyme row were added to each well followed by 20 μL of buffer containing 0.1% casein as substrate and 4 μM of ATP. The assay buffer contained: 50 mM HEPES, pH 7.5; 0.01% Brij-35; 10 mM MgCl2; 1 mM EGTA and 0.01% NaN3. […] After incubating for 60 minutes at 30° C., the enzymatic reaction was stopped using 40 μL of Kinase-GLO® reagent. Luminescence was measured after ten minutes using a FLUOstar Optima (BMG Labtechnologies GmbH, Offenburg, Germany) multimode reader. The activity was proportional to the difference between the total and consumed ATP. Inhibition activities were calculated in accordance with the maximum activity measured in the absence of inhibitor. IC50 is defined as the concentration of each compound that reduces enzyme activity by 50% with respect to that obtained without inhibitor.

The target in data set [2] is T2, recombinant human enzyme CK-1ε (Homo sapiens, UniProt P49674).
T2 construct: purchased Invitrogen
The experiment in a line: Enzyme inhibition assay, Luminometer Kinase-GLO method, CK-1ε. Type of data set: biochemical. The note with it: for IC50: casein substrate, 4 μM ATP, 60 minutes at 30° C., read-out: Inhibitory Concentration 50 (IC50) CK-1ε. The protocol: as §1, §2

The nature of a further data set: in vitro. As to conditions: pig, PAMPA, pH 7.4. The protocol: To filter the samples, PVDF membrane filters (diameter: 30 mm, pore size: 0.45 μm) were used.
Ten reference compounds were selected, whose blood-brain barrier passage is known and public, in order to validate the experiment. […] The solutions were filtered. Next, 180 μL of a PBS/ethanol (70/30) solution were added to each well of the acceptor plate. The donor plate was impregnated with 4 μL of a porcine brain lipid solution dissolved in dodecane (20 mg mL^−1). After 5 min, 180 μL of dissolution of each compound were added to this plate. Of the compounds whose penetration into the central nervous system was to be assessed, between 1-2 mg were taken and dissolved in 1,500 μL of ethanol and 3,500 μL of PBS (pH=7.4), filtered and added to the donor 96-well plate. The donor plate was then placed on the acceptor forming a kind of “sandwich” and allowed to incubate for 2 hours and 30 min at 25° C. The compounds, by passive transport, will move from the donor plate through the porcine brain lipid to the acceptor plate. After 2 hours and 30 min, it was carefully removed from the donor plate. The concentration and absorbance, both of the commercial compounds and the synthesised derivatives evaluated in the acceptor and donor plates were determined using a UV absorbance reader. Each sample was analysed at different wavelengths (3 to 5) in three wells and in at least two independent experiments.

T2 sequence (P49674 whole entry): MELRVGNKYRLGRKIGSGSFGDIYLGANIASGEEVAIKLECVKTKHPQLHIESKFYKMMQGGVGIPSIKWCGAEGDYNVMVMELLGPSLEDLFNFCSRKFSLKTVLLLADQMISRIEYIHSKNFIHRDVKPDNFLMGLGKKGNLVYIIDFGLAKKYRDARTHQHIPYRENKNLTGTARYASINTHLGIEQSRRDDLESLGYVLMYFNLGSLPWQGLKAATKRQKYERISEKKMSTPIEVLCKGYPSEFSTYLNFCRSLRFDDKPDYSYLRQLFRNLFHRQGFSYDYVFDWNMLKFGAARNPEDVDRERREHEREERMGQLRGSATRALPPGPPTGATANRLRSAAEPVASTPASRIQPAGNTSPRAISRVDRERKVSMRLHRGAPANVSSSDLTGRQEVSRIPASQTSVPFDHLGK
T1 sequence (P48730 whole entry): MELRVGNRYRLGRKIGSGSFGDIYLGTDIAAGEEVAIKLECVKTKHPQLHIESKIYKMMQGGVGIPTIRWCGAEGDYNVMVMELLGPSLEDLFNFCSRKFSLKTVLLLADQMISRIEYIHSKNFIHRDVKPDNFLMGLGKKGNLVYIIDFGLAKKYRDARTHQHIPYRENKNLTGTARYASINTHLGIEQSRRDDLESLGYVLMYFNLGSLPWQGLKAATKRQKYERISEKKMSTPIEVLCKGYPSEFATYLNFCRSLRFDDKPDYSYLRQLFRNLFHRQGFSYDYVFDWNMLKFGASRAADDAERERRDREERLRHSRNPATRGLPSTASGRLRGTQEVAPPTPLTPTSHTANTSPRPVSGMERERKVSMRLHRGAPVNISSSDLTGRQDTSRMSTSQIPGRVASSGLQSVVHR

On to `COc1ccc2nc(NC(=O)Cc3ccccc3OC)sc2c1` [Compound 51, N-(6-methoxybenzothiazole-2-yl)-2-(2-methoxyphenyl)acetamide], for which, in data set [1], the IC50 amounted to 2220 nM. In addition, in data set [2], the inhibition at 10 µM worked out at 33%. The Papp at […] in “in vitro” came to 11.2 ± 0.9 ×10⁻⁶ cm/s.

For `COc1ccc2nc(NC(=O)Cc3ccccc3Cl)sc2c1` [Compound 49, N-(6-methoxybenzothiazole-2-yl)-2-(2-chlorophenyl)acetamide], the IC50 in data set [1] came to 9710 nM. Further, the inhibition at 10 µM in data set [2] was found to be 30%.

On to `COc1ccccc1CC(=O)Nc1nc2ccc(Br)cc2s1` [Compound 32, N-(6-bromobenzothiazole-2-yl)-2-(2-methoxyphenyl)acetamide], for which the IC50 in data set [1] worked out at 260 nM; in data set [2] it was 1030 nM.

With `NS(=O)(=O)c1ccc2nc(NC(=O)C(c3ccccc3)c3ccccc3)sc2c1` [Compound 41, N-(6-sulfamoylbenzothiazole-2-yl)-2,2-diphenylacetamide], the inhibition at 10 µM in data set [1] and in data set [2] was 10% throughout.

As to `COc1cccc(CC(=O)Nc2nc3ccc(OC)cc3s2)c1` [Compound 25, N-(6-methoxybenzothiazole-2-yl)-2-(3-methoxyphenyl)acetamide], the values for the IC50 in data set [1] and in data set [2] were 420 nM and 2430 nM, respectively.

For `CCOc1ccc2nc(NC(=O)Cc3ccccc3OC)sc2c1` [Compound 52, N-(6-ethoxybenzothiazole-2-yl)-2-(2-methoxyphenyl)acetamide], the IC50 in data set [1] is 5760 nM. In data set [2], the inhibition at 10 µM was 46%.

Consider `COc1ccc(CC(=O)Nc2nc3ccc(OC)cc3s2)cc1` [Compound 19, N-(6-methoxybenzothiazole-2-yl)-2-(4-methoxyphenyl)acetamide], for which the IC50 is 570 nM in data set [1] and 2410 nM in data set [2].

For the molecule `O=C(Cc1cccc(Cl)c1)Nc1nc2ccc(OC(F)(F)F)cc2s1` [Compound 23, N-(6-trifluoromethoxybenzothiazole-2-yl)-2-(3-chlorophenyl)acetamide], the IC50 in data set [1] was found to be 540 nM; in data set [2] it was 1020 nM.

For `O=C(CC(c1ccccc1)c1ccccc1)Nc1nc2ccccc2s1` [Compound 34, N-(benzothiazole-2-yl)-3,3-diphenylpropanamide], the IC50 in data set [1] amounted to 2500 nM; in data set [2] it was 9730 nM.

As to `COc1cc(/C=C/C(=O)Nc2nc3ccc(S(=O)(=O)N(C)C)cc3s2)cc(OC)c1OC` [Compound 57, (E)-N-(6-(N,N-dimethylsulfamoyl)benzothiazole-2-yl)-3-(3,4,5-trimethoxyphenyl) acrylamide], the “CK-1δ inhibition % @ 10 μM” value in data set [1] (@ 10 μM) worked out at 10% @. In addition, the “CK-1ε inhibition % @ 10 μM” value in data set [2] (@ 10 μM) is 10% @.

As to `O=C(Cc1ccc(F)cc1)Nc1nc2ccccc2s1` [Compound 18, N-(benzothiazole-2-yl)-2-(4-fluorophenyl)acetamide], the values for the IC50 in data set [1] and in data set [2] were 530 nM and 3080 nM, respectively.

Consider `O=C(Cc1cccc(C(F)(F)F)c1)Nc1nc2ccc(C(F)(F)F)cc2s1` [Compound 13, N-(6-trifluoromethylbenzothiazole-2-yl)-2-(3-(trifluoromethyl)phenyl)acetamide], for which the IC50 came to 87 nM in data set [1] and 720 nM in data set [2].

For `CCCCNS(=O)(=O)c1ccc2nc(NC(=O)C(c3ccccc3)c3ccccc3)sc2c1` [Compound 43, N-(6-(N-butylsulfamoyl)benzothiazole-2-yl)-2,2-diphenylacetamide], the inhibition at 10 µM in data set [1] and in data set [2] was 10% in each case.

In the case of `COc1ccc(NC(=O)Nc2nc3ccc(C(F)(F)F)cc3s2)cc1` [Compound 46, N-(6-trifluoromethylbenzothiazole-2-yl)-N′-(4-methoxyphenyl)urea], the IC50 in data set [1] came to 5500 nM. Besides, the inhibition at 10 µM in data set [2] was found to be 29%.

`O=C(Cc1ccc(Cl)c(Cl)c1)Nc1nc2ccc(C(F)(F)F)cc2s1` [Compound 9, N-(6-trifluoromethylbenzothiazole-2-yl)-2-(3,4-dichlorophenyl)acetamide]: the IC50 in data set [1] was 56 nM; in data set [2], 870 nM.

As for `O=C(Cc1ccccc1Cl)Nc1nc2ccc(C(F)(F)F)cc2s1` [Compound 7, N-(6-trifluoromethylbenzothiazole-2-yl)-2-(2-chlorophenyl)acetamide], the IC50 stood at 68 nM in data set [1] and 7730 nM in data set [2].

Turning to `COc1ccc2nc(NC(=O)Cc3cc(OC)c(OC)c(OC)c3)sc2c1` [Compound 55, N-(6-methoxybenzothiazole-2-yl)-2-(3,4,5-trimethoxyphenyl)acetamide], the IC50 is 6650 nM in data set [1] and 17700 nM in data set [2].

As to `COc1ccccc1CC(=O)Nc1nc2ccc(Cl)cc2s1` [Compound 31, N-(6-chlorobenzothiazole-2-yl)-2-(2-methoxyphenyl)acetamide], the IC50 was found to be 320 nM in data set [1] and 1150 nM in data set [2].

With `CCOc1ccc2nc(NC(=O)C(c3ccccc3)c3ccccc3)sc2c1` [Compound 39, N-(6-ethoxybenzothiazole-2-yl)-2,2-diphenylacetamide], the results for the IC50 in data set [1] and in data set [2] were 2820 nM and 7860 nM, respectively.

Consider `O=C(CNC(=O)C(c1ccccc1)c1ccccc1)Nc1nc2ccccc2s1` [Compound 37, N-(benzothiazole-2-yl)-2-(2,2-diphenylacetamide)acetamide], for which the IC50 is 1930 nM in data set [1] and 13000 nM in data set [2].

On to `COc1ccc2nc(NC(=O)C(c3ccccc3)c3ccccc3)sc2c1` [Compound 16, N-(6-methoxybenzothiazole-2-yl)-2,2-diphenylacetamide], for which the IC50 turned out to be 840 nM in data set [1] and 5070 nM in data set [2].

Regarding `CCOC(=O)c1ccc2nc(NC(=O)C(c3ccccc3)c3ccccc3)sc2c1` [Compound 40, Carboxylate[2-(2,2-diphenylacetamide)benzothiazole-6-yl]ethyl], the IC50 in data set [1] was determined as 6680 nM; in data set [2], 1600 nM.

As to `O=C(CNC(=O)c1ccccc1)Nc1nc2ccccc2s1` [Compound 36, N-[2-(benzothiazole-2-ylamine)-2-oxoethyl]benzamide], the IC50 in data set [1] stood at 7290 nM. Also, in data set [2], the inhibition at 10 µM worked out at 48%.

For the molecule `O=C(COCc1ccccc1)Nc1nc2ccccc2s1` [Compound 35, N-(benzothiazole-2-yl)-2-benzyloxyacetamide], the IC50 in data set [1] is 4370 nM. For the same molecule, in data set [2], the inhibition at 10 µM is 48%.

For `O=C(Nc1nc2ccccc2s1)C(c1ccccc1)c1ccccc1` [Compound 33, N-(benzothiazole-2-yl)-2,2-diphenylacetamide], the figures for the IC50 in data set [1] and in data set [2] were 1960 nM and 7310 nM, respectively.

As to `COc1ccc2nc(NC(=O)Cc3ccc(Cl)cc3)sc2c1` [Compound 21, N-(6-methoxybenzothiazole-2-yl)-2-(4-chlorophenyl)acetamide], the IC50 in data set [1] was 750 nM; in data set [2] it was 8750 nM.

For the molecule `COc1ccccc1CC(=O)Nc1nc2ccc(F)cc2s1` [Compound 59, N-(6-fluorobenzothiazole-2-yl)-2-(2-methoxyphenyl)acetamide], the IC50 was 1170 nM in data set [1] and 4510 nM in data set [2].

`CCOc1ccc2nc(NC(=O)Cc3ccc(OC)cc3)sc2c1` [Compound 45, N-(6-ethoxybenzothiazole-2-yl)-2-(4-methoxyphenyl)acetamide]: the IC50 in data set [1] is 1090 nM; in data set [2], 9490 nM.

Regarding `CCN(CC)S(=O)(=O)c1ccc2nc(NC(=O)C(c3ccccc3)c3ccccc3)sc2c1` [Compound 44, N-(6-(N,N-diethylsulfamoyl)benzothiazole-2-yl)-2,2-diphenylacetamide], the IC50 in data set [1] was found to be 9830 nM; in data set [2], 3470 nM.

Consider `O=C(Cc1ccccc1)NCC(=O)Nc1nc2ccccc2s1` [Compound 38, N-(benzothiazole-2-yl)-2-(2-phenylacetamide)acetamide], for which, in data set [1], the IC50 was determined as 6330 nM. Besides, in data set [2], the inhibition at 10 µM amounted to 37%.

Take `O=C(Nc1cccc(Cl)c1)Nc1nc2ccc(C(F)(F)F)cc2s1` [Compound 24, N-(6-trifluoromethylbenzothiazole-2-yl)-N′-(3-chlorophenyl)urea]: the IC50 in data set [1] was found to be 740 nM; in data set [2], 11000 nM.
